Assay results published in patent publication US20040037904A1, “Antibacterial composition comprising as an active ingredient saponificated vegetable oil” (priority 2000, published 2004).
Entries after “also recorded” stand apart in the source; their conditions may differ.

Key:
Musca domestica (adult) = assay: Adult flies in spray-treated Petri dishes, surviving flies counted; type: in vivo; conditions: 10 adult flies per pre-treated dish; RB 86 6%, Bionim 0.4%, potassium oleate 5% concentration
Method: (§1) As RB 86™ needs an emulsifier for dissolving this emulsifier was also tested. All tests were reiterated, making a total of five times for each. Throughout the study, houseflies (Musca domestica) of a laboratory strain (772a) obtained from Statens Skadedyrslaboratorium, Lyngby, Denmark, was used. Standard medium for culturing larvae consisted of baker's yeast, mill: powder, water and wheat bran.
Test vessels were Petri dishes made of glass with a diameter of 9 cm. With the help of a spraying bottle the bottoms of the vessels were treated with each of the compositions a)-f). After transferring 10 adult flies to each of the pre-treated dishes, the dishes were covered with plastic film and the registration started. Observations were performed by counting the surviving flies at the start, after 5 minutes and subsequently every 10th minute up to a total of 60 minutes. Two further observations were made after 1.5 and 2 hours from the start, respectively.

Musca domestica (larvae) = assay: Larvae in culture medium with the composition, surviving larvae counted; type: in vivo; conditions: six days old larvae, 24° C., observed up to 36 hours
Method: as §1
Six days old larvae were placed in 1.5 litre plastic vessels (Cerbo™) containing 40 g culture medium and the respective composition a)-f). The vessels were placed in a climate room (24° C., RH %=75%±10%). Observations were performed whereby the number surviving larvae were registrated after 2, 5, 12, 24 and 36 hours.

[1] = test system: M. domestica spiracle opening bristles; assay: Effects on flies studied in scanning electron microscope; type: in vivo, Musca domestica; conditions: adult flies; Bionim 0.4%, potassium oleate 5%, Blidol 0.02%; SEM
Excerpt: A scanning electron microscope (SEM) was used to microscope adult flies treated with:
whereby morphological changes could be detected. These flies were photographed and compared with normal flies.
Morphological changes could be detected on the spiracle opening on the middle part of the body. Bristles (see FIG. 12) surround this breathing hole. […] Apparently these last mentioned effects are present when using the other compositions.

fleas = assay: Flea control on dogs; type: in vivo
Method: 15 dogs infested with fleas were treated with oleate. The oleate was sprayed from pump bottles. At the first treatment the dogs were sprayed with oleate in the groins, armpits and head/neck. At the second treatment, twenty-four hours later, the dogs were sprayed only in the armpits and behind the ears.

CCCCCCCC/C=C\CCCCCCCC(=O)[O-].[K+] [Potassium oleate]
time within which all flies were killed (Musca domestica (adult)): ≤ 5 min
controlling effect on larvae (Musca domestica (larvae)): An effect could however be detected
deformation of bristles around the spiracle opening [1]: The bristles are minimally affected; also recorded: only showed minimal changes
fleas found on dogs (fleas; after the first spray treatment, 15 infested dogs): only one or two fleas were found on some dogs
living fleas found (fleas; forty-eight hours later, after the second treatment): no living flea was found
living fleas found at another check (fleas; four days later): the result was the same
